Measured values: PubChem BioAssay (NCI)
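Test compounds were applied to cells in 96-well plates for 48 hours at 5 doses. GI50: concentration for 50% inhibition of growth. The concentration for full growth arrest is given as TGI.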

Key:
Experiment in all cases: growth of human tumour cells (NCI), 48 h
MOLT-4 leukemia = tested on: MOLT-4 leukemia
HCC-2998 colon = tested on: HCC-2998 colon
HOP-62 NSCLC = tested on: HOP-62 NSCLC
786-0 renal = tested on: 786-0 renal
UACC-257 melanoma = tested on: UACC-257 melanoma
IGROV1 ovarian = tested on: IGROV1 ovarian
EKVX NSCLC = tested on: EKVX NSCLC
HT29 colon = tested on: HT29 colon
SW-620 colon = tested on: SW-620 colon
TK-10 renal = tested on: TK-10 renal

Compound	TGI (MOLT-4 leukemia) [µM]	TGI (HCC-2998 colon) [µM]	TGI (HOP-62 NSCLC) [µM]	TGI (786-0 renal) [µM]	TGI (UACC-257 melanoma) [µM]	TGI (IGROV1 ovarian) [µM]	TGI (EKVX NSCLC) [µM]	TGI (HT29 colon) [µM]	TGI (SW-620 colon) [µM]	TGI (TK-10 renal) [µM]	GI50 (MOLT-4 leukemia) [nM]	GI50 (HCC-2998 colon) [nM]	GI50 (HOP-62 NSCLC) [µM]	GI50 (786-0 renal) [µM]	GI50 (UACC-257 melanoma) [nM]	GI50 (IGROV1 ovarian) [nM]	GI50 (EKVX NSCLC) [nM]	GI50 (HT29 colon) [nM]	GI50 (SW-620 colon) [µM]	GI50 (TK-10 renal) [nM]
COc1ccc(C=O)cc1O[Si](C)(C)C(C)(C)C	> 100	> 100	> 100	> 100	> 100	> 100	> 100	> 100	> 100	> 100										
COC(=O)C(=O)CC(=O)CCn1[nH]c(=O)c(Cl)c(Cl)c1=O		> 100	> 100	> 100	> 100	> 100	> 100	> 100	> 100	> 100										
COC(=O)c1ccc2[nH]c(O)c(C(=Nc3ccc(N(C)C(=O)CN4CCN(C)CC4)cc3)c3ccc4c(c3)OCO4)c2c1	2.4	2.69	4.53	2.14	6.77	1.52	3.45	> 27.8	2.21	3.14	323	1000	0.939	0.692	2270	176	1400	553	0.348	1360
COc1ccc2c(c1)OC1=C(C(=O)OC1)C2c1cc(OC)c2c(c1)OCCO2 (configuration not stated)	> 100		> 100	> 23.1	> 100	> 100	> 100		> 100	> 100	182	78.1	0.0512	0.068	45.8	128	68.2	36.6	0.0393	1540
CCN(CC)CCNC(Cc1ccccc1)c1ccc(OCc2ccccc2)cc1 (configuration not stated)	13.2	17.4	21.7	17.9	4.85	17.1		11.8	20		3430	5170	8.49	3.61	2130	4430		2440	5.53	
O=C(O)CCCc1ccc2ccc3ccccc3c2c1	> 100		> 100	> 100	> 100	> 100	> 100	> 100		> 100										
C=C(C)[C@@H]1CC[C@]2(COCCCN)CC[C@]3(C)[C@H](CC[C@@H]4[C@@](C)(CCCNCCCN)[C@H](C(=C)C)CC[C@]43C)[C@@H]12	4.47		3.25	2.96	3.67	2.9	3.21		3.79	3.15	1960		1.66	1.56	1880	1490	1710		1.84	1680
O=C1N/C(=C\[N+](=O)[O-])c2ccccc21	> 100	> 100	> 100	> 100	> 100	> 100	> 100	> 100	> 100	> 100										
O=C(Oc1ccc[nH]c1=O)c1cc([N+](=O)[O-])cc([N+](=O)[O-])c1	> 100	> 100	> 100	> 100	> 100	> 100	> 100	> 100	> 100	> 100	> 100000	> 100000	> 100	> 100	> 100000	> 100000	> 100000	> 100000	99	> 100000
CNC(=O)OCc1nc(SSC(C)(C)C)n(C)c1COC(=O)NC	4.16	22.4	31.1	9.12	7.64	22.9	20.7	13.3	3.67	13										
CCC[CH2][Sn]([CH2]CCC)([O]C(=O)CN)[O]C(=O)CN	> 100	> 100	> 100	> 100	> 100	> 100	51.2	> 100	37	> 100	29100	93300	7.25	33	50400	> 100000	16000	> 100000	18.1	38400
O=C1C(=O)c2ccccc2C(O)=C1C(C1=C(O)c2ccccc2C(=O)C1=O)c1ccc(Cl)cc1	19.3		13.1	11.2	17	27.2	32.1	20.9	> 73.7	28.2										
COc1cc(NCC(C#N)C#N)ccc1N=Nc1ccc(Cl)cc1	39.8	35.1	36.4	48.8		71.7	68.5	30.5	41.9	73										
CC(=O)C1C(c2ccccc2)C2(C)OC(=O)C(C#N)C12C (configuration not stated)	> 100			> 100		> 100	> 100		> 100	> 100										
CCN1C(=O)c2ccc3c4c(ccc(c24)C1=O)C(=O)N(CCCNCc1ccccc1OC)C3=O	4.37	1.89	2.78	5.88	0.88	4.37		3.67	1.77	7.6	891	632	0.925	1.33	264	1280		404	0.362	2520
N#C/C(=C/c1cccc(Oc2ccccc2)c1)c1ccccc1	> 100	> 100		> 100	> 100	> 100	> 100	> 100	> 100	> 100										
C=C(C)C1CC2(C)C(C)CC(O)CC2C(OC(=O)C=C(C)C)C1O (configuration not stated)	83.1	> 100		> 100	> 100	> 100	> 100	69.8		> 100										
O=NNc1ccc2ccccc2n1	> 100		> 100	> 100	> 100	> 100	> 100	> 100	> 100	> 100										
CCOC(=O)[CH-]C(=O)C12CC3CC(CC(C3)C1)C2.CCOC(=O)[CH-]C(=O)C12CC3CC(CC(C3)C1)C2.CC[O-].CC[O-].[Ti+4]	> 100		> 100	> 100	> 100	> 100		> 100	> 100	> 100	> 100000		> 100	> 100	> 100000	> 100000		> 100000	> 100	> 100000

Compound	TGI (MOLT-4 leukemia) [µM]	TGI (HCC-2998 colon) [µM]	TGI (HOP-62 NSCLC) [µM]	TGI (786-0 renal) [µM]	TGI (UACC-257 melanoma) [µM]	TGI (IGROV1 ovarian) [µM]	TGI (EKVX NSCLC) [µM]	TGI (HT29 colon) [µM]	TGI (SW-620 colon) [µM]	TGI (TK-10 renal) [µM]	GI50 (MOLT-4 leukemia) [nM]	GI50 (HCC-2998 colon) [nM]	GI50 (HOP-62 NSCLC) [µM]	GI50 (786-0 renal) [µM]	GI50 (UACC-257 melanoma) [nM]	GI50 (IGROV1 ovarian) [nM]	GI50 (EKVX NSCLC) [nM]	GI50 (HT29 colon) [nM]	GI50 (SW-620 colon) [µM]	GI50 (TK-10 renal) [nM]
O=c1[nH]c2ccccc2cc1-c1nc2ccc(Cl)cc2[nH]1		> 100	59.3	> 100	> 100	> 100	> 100	> 100	> 100	> 100		11000	6.79	7.42	13900	1360	2350	4240	4.81	2510
CCCC1(CC(=O)O)OCCc2c1[nH]c1ccccc21 (configuration not stated)	> 100	> 100	> 100	> 100	> 100	> 100	> 100		> 100	> 100										
O=C(Nc1cccc(O)c1)C(=O)C1C(=O)NC(=S)NC1=O	> 100	> 100		> 100	> 100	> 100	> 100	> 100	> 100											
[N-]=[N+]=NCCCn1c2c(c3ccc([N+](=O)[O-])cc3c1=O)C(=O)c1ccccc1-2	> 100		> 100	> 100	56.8	> 100	> 100	> 100	> 100	> 100			> 100	> 100	244	> 100000	> 100000	> 100000	5.26	99200
Cc1ccc(S(=O)(=O)N/N=C2\CCCCC23CCC(=O)NC3)cc1 (configuration not stated)	> 100	> 100	> 100	> 100	> 100	> 100			> 100	> 100										
CN(C)Cc1cc(C(F)(F)F)ccc1C(O)(c1ccccc1)c1ccccc1	38.8		33.7	27.7	24	30.9	29.6	21.6	41	31										
N#CCC(=O)N/N=C1/C(=O)N(c2ccc(Cl)cc2)C(=O)C(=O)C1c1nc2ccccc2s1 (configuration not stated)		> 100	> 100	> 100	> 100	> 100	> 100	> 100	> 100	> 100										
CC(=O)c1ccc(NC(=O)/C(CC(=O)c2sc(-c3cccnc3)nc2C)=N/NC(N)=O)cc1	46			83.8		> 100		> 100	> 100											
NC(CSC(c1ccccc1)(c1ccccc1)c1ccccc1)C(=O)NCC(=O)O (configuration not stated)	86.3	22.2	> 100	> 100	> 100	> 100		97.6	> 100		16000	2570	8.16	6.78	5190	10700		22000	3.59	
Cn1c(Cl)c(/C=C2/C(=O)Nc3ccccc32)c2ccccc21			6.68	20.5	37.8	> 100	7.52	> 100	14.7	20.4	139		0.293	1.32	10700	2120		144	0.299	1500
COc1cc(Nc2ncccc2C(=O)Nc2nc3ccc(F)cc3s2)cc(OC)c1OC	5.85	6.96	> 100	> 100		6.89	> 100	> 100			2110	2930	5.78	5.51		1770	2700	5150		
Nc1ncc(-c2cnn(C3CCNCC3)c2)cc1-c1nc2cc(Cl)ccc2o1		2.82	3.1	3.16	2.59	2.43		1.25	1.34	3.58		1470	1.61	1.71	1290	1040		352	0.363	1940
NC(CCCC(N)P(=O)(O)O)P(=O)(O)O (configuration not stated)	> 100	> 100		> 100	> 100	> 100	> 100	> 100	> 100	> 100										
C=CC[P@]1(=O)O[C@H](c2ccccc2)[C@H](C)N1C	> 100	> 100		> 100		> 100	> 100	> 100	> 100	> 100										
O=C(O)CSCCc1ccccc1	> 100		> 100	> 100	> 100	> 100	> 100	> 100	> 100	> 100										
NC1=NN(c2ccccc2)C(=O)C1C(=O)CCC(=O)Nc1cccc(Cl)c1 (configuration not stated)		> 100	> 100	> 100	> 100	> 100	> 100	> 100	> 100	> 100										
O=C(Nc1ccc(Cl)cc1)C1C(=O)C(=O)N(c2ccc(Cl)cc2)C1=O (configuration not stated)	> 100			> 100		> 100	> 100	> 100	> 100	> 100										
CSC(SC)(C(=O)O)c1cc(-c2c(Cl)cccc2Cl)no1	> 100		> 100	> 100	> 100	> 100	> 100	> 100	> 100	> 100										
